Data: PubChem BioAssay (NCI)
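Five concentrations, 48 hours, 96-well plates. GI50 is the concentration that inhibits growth by half. TGI: total growth inhibition.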

Key:
Assay in all cases: NCI anticancer screen, dose series, 48 h
SK-MEL-5 melanoma = test system: SK-MEL-5 melanoma
ACHN renal = test system: ACHN renal
CAKI-1 renal = test system: CAKI-1 renal
HCT-116 colon = test system: HCT-116 colon
LOX IMVI melanoma = test system: LOX IMVI melanoma
K-562 leukemia = test system: K-562 leukemia
NCI/ADR-RES ovarian = test system: NCI/ADR-RES ovarian
MCF7 breast = test system: MCF7 breast
MDA-MB-231 breast = test system: MDA-MB-231 breast
MOLT-4 leukemia = test system: MOLT-4 leukemia

## Nc1ccn(CCCC(c2ccccc2)P(=O)(O)O)c(=O)n1 (stereo not drawn)
SK-MEL-5 melanoma
  TGI: > 100 µM
ACHN renal
  TGI: > 100 µM
CAKI-1 renal
  TGI: > 100 µM
HCT-116 colon
  TGI: > 100 µM
LOX IMVI melanoma
  TGI: > 100 µM
K-562 leukemia
  TGI: > 100 µM

## COC(=O)[C@@H](NC(=O)c1ccc(CNC(=O)/C(C)=C/c2ccccc2)cc1)C(C)C
NCI/ADR-RES ovarian
  TGI: > 100 µM
SK-MEL-5 melanoma
  TGI: > 100 µM
ACHN renal
  TGI: > 100 µM
CAKI-1 renal
  TGI: > 100 µM
HCT-116 colon
  TGI: > 100 µM
LOX IMVI melanoma
  TGI: > 100 µM
MCF7 breast
  TGI: > 100 µM
K-562 leukemia
  TGI: > 100 µM
MDA-MB-231 breast
  TGI: > 100 µM
MOLT-4 leukemia
  TGI: > 100 µM

## COCC1N=C(c2cc(OC)c(OC)c(OC)c2-c2cc3c(cc2[C@@H](C)O)OCO3)O[C@H]1c1ccccc1 (stereo partly drawn)
NCI/ADR-RES ovarian
  TGI: > 95.7 µM
SK-MEL-5 melanoma
  TGI: > 100 µM
CAKI-1 renal
  TGI: > 100 µM
HCT-116 colon
  TGI: > 100 µM
LOX IMVI melanoma
  TGI: > 100 µM
MCF7 breast
  TGI: > 100 µM
K-562 leukemia
  TGI: > 100 µM
MOLT-4 leukemia
  TGI: > 100 µM

## O=C1[C@H](O)[C@@H]2CCC[C@@]23CCCN13
NCI/ADR-RES ovarian
  TGI: > 100 µM
SK-MEL-5 melanoma
  TGI: > 100 µM
ACHN renal
  TGI: > 100 µM
CAKI-1 renal
  TGI: > 100 µM
HCT-116 colon
  TGI: > 100 µM
LOX IMVI melanoma
  TGI: > 100 µM
MCF7 breast
  TGI: > 100 µM
K-562 leukemia
  TGI: > 100 µM
MOLT-4 leukemia
  TGI: > 100 µM

## COc1cc(O)c2c(=O)c(OC)c(-c3ccc(OC)c(OC)c3)oc2c1.[Sn]
NCI/ADR-RES ovarian
  GI50: > 100 µM
  TGI: > 100 µM
SK-MEL-5 melanoma
  GI50: 32.9 µM
  TGI: > 100 µM
ACHN renal
  GI50: > 100 µM
  TGI: > 100 µM
CAKI-1 renal
  TGI: > 100 µM
LOX IMVI melanoma
  GI50: 29.8 µM
  TGI: > 100 µM
MCF7 breast
  GI50: > 100 µM
  TGI: > 100 µM
K-562 leukemia
  GI50: > 100 µM
  TGI: > 100 µM
MDA-MB-231 breast
  GI50: > 100 µM
  TGI: > 100 µM
MOLT-4 leukemia
  GI50: 80.1 µM
  TGI: > 100 µM

## COc1ccc2nc3c([N+](=O)[O-])ccc(NCCCN(C)C)c3c(N)c2c1
NCI/ADR-RES ovarian
  TGI: 4.25 µM
SK-MEL-5 melanoma
  TGI: 3.63 µM
ACHN renal
  TGI: 2.59 µM
CAKI-1 renal
  TGI: 3.71 µM
HCT-116 colon
  TGI: 0.464 µM
LOX IMVI melanoma
  TGI: 3.23 µM
MCF7 breast
  TGI: 2.5 µM
K-562 leukemia
  TGI: 1.41 µM
MDA-MB-231 breast
  TGI: 3.09 µM
MOLT-4 leukemia
  TGI: 1.69 µM

## O=C1CCc2ccccc2O1
NCI/ADR-RES ovarian
  TGI: > 100 µM
ACHN renal
  TGI: > 100 µM
CAKI-1 renal
  TGI: > 100 µM
HCT-116 colon
  TGI: > 100 µM
LOX IMVI melanoma
  TGI: > 100 µM
MCF7 breast
  TGI: > 100 µM
K-562 leukemia
  TGI: > 100 µM
MDA-MB-231 breast
  TGI: > 100 µM
MOLT-4 leukemia
  TGI: > 100 µM

## Clc1ccc(Nc2nnc(CNc3ccc(-c4nnc(Nc5ccc(Cl)cc5)o4)cc3)o2)cc1
NCI/ADR-RES ovarian
  TGI: > 77.9 µM
SK-MEL-5 melanoma
  TGI: 33.4 µM
ACHN renal
  TGI: 43.6 µM
CAKI-1 renal
  TGI: 33.9 µM
HCT-116 colon
  TGI: 33.7 µM
LOX IMVI melanoma
  TGI: 20.7 µM
MCF7 breast
  TGI: 34.9 µM
K-562 leukemia
  TGI: > 100 µM
MDA-MB-231 breast
  TGI: 25.4 µM
MOLT-4 leukemia
  TGI: 49.3 µM

## CC1(C)OC2OC(C(=O)c3ccccc3)C3OC(C)(C)OC3C2O1 (stereo not drawn)
NCI/ADR-RES ovarian
  TGI: > 100 µM
SK-MEL-5 melanoma
  TGI: > 100 µM
ACHN renal
  TGI: > 100 µM
CAKI-1 renal
  TGI: > 100 µM
HCT-116 colon
  TGI: > 100 µM
LOX IMVI melanoma
  TGI: > 100 µM
MCF7 breast
  TGI: > 100 µM
K-562 leukemia
  TGI: > 100 µM
MDA-MB-231 breast
  TGI: > 100 µM
MOLT-4 leukemia
  TGI: > 100 µM

## CON(C(=O)OC(C)(C)C)c1ccccc1
NCI/ADR-RES ovarian
  TGI: > 100 µM
SK-MEL-5 melanoma
  TGI: > 100 µM
ACHN renal
  TGI: > 100 µM
CAKI-1 renal
  TGI: > 100 µM
HCT-116 colon
  TGI: > 100 µM
LOX IMVI melanoma
  TGI: > 100 µM
K-562 leukemia
  TGI: > 100 µM
MDA-MB-231 breast
  TGI: > 100 µM
MOLT-4 leukemia
  TGI: > 100 µM
